The source of these data is patent US8222202B2 (priority 2006, dated 2012).

One assay deals with T1, hV1a receptor (Homo sapiens, UniProt P37288).
T1 construct: expressed in transfected cells; host or cells: HEK-293
The assay is described as follows: hV1a receptor transcriptional reporter (luciferase) agonist assay. It counts as cell-based.

Assay [1] has as its system anaesthetised Sprague-Dawley male rats. The assay is described as follows: in vivo duration of action, blood pressure test in anaesthetised rats. Set-up: species or system rat. The conditions noted are these: ratio of decay rate of diastolic blood pressure response, AVP 0.1 nmol/kg i.v. to equieffective dose of compound; dibenamine-pretreated rats.
Description: Blood pressure tests were carried out on anaesthetised Sprague-Dawley male rats (weighing 270-300 g) with catheterised jugular vein and carotid artery. The catheterised carotid artery was used to continuously monitor blood pressure and the jugular vein was used for administration of the compounds tested. Rats received intravenous injections of dibenamine prior to dosing to enhance their responsiveness to V1a receptor agonists (cf. Dekanski, J., Br. J. Pharmacol. 1952, 7, 567-572). […] Dosing intervals were set as time for the blood pressure to decrease to a stable baseline.
Determination of duration of action was based on the decay rate of diastolic arterial blood pressure transient increase. Specifically, for an exponential decay of plasma concentration, it can be shown that, if the response is measured beyond the distribution phase, the rate of decay near the EC50 is linear and inversely proportional to the elimination half-life (Rowland, M. and Tozer, T. in “Clinical Pharmacokinetics, Concepts and Applications”, 3rd ed., Lippincott Williams & Wilkins, Philadelphia, 1995).
Assay [2] deals with T2, human oxytocin (hOT) receptor (Homo sapiens, UniProt P30559).
T2 construct: expressed in transfected cells
T2 sequence (P30559 1-389): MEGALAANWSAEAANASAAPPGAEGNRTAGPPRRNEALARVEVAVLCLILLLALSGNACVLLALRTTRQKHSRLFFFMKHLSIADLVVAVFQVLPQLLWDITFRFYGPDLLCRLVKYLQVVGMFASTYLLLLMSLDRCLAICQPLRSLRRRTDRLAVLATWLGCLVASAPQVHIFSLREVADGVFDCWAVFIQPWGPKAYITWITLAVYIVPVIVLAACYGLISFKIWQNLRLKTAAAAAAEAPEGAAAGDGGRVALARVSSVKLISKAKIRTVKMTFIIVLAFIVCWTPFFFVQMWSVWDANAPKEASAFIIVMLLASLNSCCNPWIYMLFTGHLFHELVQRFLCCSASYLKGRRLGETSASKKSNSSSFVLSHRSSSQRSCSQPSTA
The assay is described as follows: luciferase-based transcriptional reporter assay, selectivity hOT versus hV1a. It counts as cell-based. On the technique in general: A reporter such as luciferase makes a cellular process visible.

Setting [3] is: HEK-293 cells transiently transfected with hV1a receptor, 5 hours exposure, geometric mean, read-out: EC50 hV1a receptor.
Where [4] appears, read: class symbol, agonist efficacy at hOT receptor compared to AVP.

Where two headings read alike, the source gives them in different places. Starred links: 1 amine or outer side, 2 acyl side, 3 side chain; linkers in the order of their positions; H or OH if unused. Positions of bridges follow the written chain, without caps; N, C: chain ends. Non-standard residues stand in square brackets, D forms with d. Residues, ends and D or L forms follow the SMILES beside them. Orn(Me) = CN(CCC[C@H](N[*:1])C(=O)[*:2])[*:3]; Ala(2-furyl) = N[C@@H](Cc1ccco1)C(=O)O; X1 = CCNCCC[C@H](N[*:1])C(=O)[*:2]; Orn(Pr) = CCCNCCC[C@H](N)C(=O)O; 3Thi = N[C@@H](Cc1ccsc1)C(=O)O; Orn = NCCC[C@H](N)C(=O)O; Dab = NCC[C@H](N)C(=O)O

T1 sequence (P37288 whole entry): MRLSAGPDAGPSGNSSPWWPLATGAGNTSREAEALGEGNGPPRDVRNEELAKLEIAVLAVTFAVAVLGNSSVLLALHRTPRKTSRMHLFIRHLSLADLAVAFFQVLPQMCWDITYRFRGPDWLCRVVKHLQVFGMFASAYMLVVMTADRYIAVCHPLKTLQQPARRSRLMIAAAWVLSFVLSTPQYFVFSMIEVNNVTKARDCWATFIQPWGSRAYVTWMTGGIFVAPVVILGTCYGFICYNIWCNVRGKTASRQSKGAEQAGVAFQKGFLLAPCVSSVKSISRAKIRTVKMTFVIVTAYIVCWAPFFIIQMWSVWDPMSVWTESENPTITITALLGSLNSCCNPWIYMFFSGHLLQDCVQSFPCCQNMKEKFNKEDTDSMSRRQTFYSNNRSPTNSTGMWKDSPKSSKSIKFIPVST

With `CCNCCC[C@H](NC(=O)[C@@H]1CCCN1C(=O)[C@@H]1CSSC[C@H](N)C(=O)N[C@@H](Cc2ccccc2)C(=O)N[C@@H]([C@@H](C)CC)C(=O)N[C@@H](CC(N)=O)C(=O)N[C@@H](CC(N)=O)C(=O)N1)C(=O)NCC(N)=O` [Compound 47] (H-CFINNCP[X1]G-NH2; disulfide 1-6; N-terminus and C-terminus assumed), the EC50 (as a rule, the midpoint of the concentration-response curve) at hV1a receptor (setting [3]) is 990 pM. The “in vivo duration relative to AVP” value in assay [1] was determined as 1.6. Also, the “selectivity hOT/hV1a” value in assay [2] (setting [4]) was “+ (selective hV1a receptor agonist; EC50 hOT/hV1a ratio not determined due to very low agonist efficacy (<30% compared to AVP) at the hOT receptor)”.
As for `CC[C@H](C)[C@@H]1NC(=O)[C@H](Cc2ccsc2)NC(=O)[C@@H](N)CSSC[C@@H](C(=O)N2CCC[C@H]2C(=O)N[C@@H](CCN)C(=O)NCC(N)=O)NC(=O)[C@H](CC(N)=O)NC(=O)[C@H](CCC(N)=O)NC1=O` [Compound 15] (H-C[3Thi]IQNCP[Dab]G-NH2; disulfide 1-6), the EC50 on hV1a receptor (setting [3]) was found to be 610 pM. Also, in assay [1], the “in vivo duration relative to AVP” value is given as 2.2. The “selectivity hOT/hV1a” value in assay [2] (EC50 ratio) was 43.
The matching figures for `CC[C@H](C)[C@@H]1NC(=O)[C@H](Cc2ccco2)NC(=O)[C@@H](N)CSSC[C@@H](C(=O)N2CCC[C@H]2C(=O)N[C@@H](CCN)C(=O)NCC(N)=O)NC(=O)[C@H](CC(N)=O)NC(=O)[C@H](CCC(N)=O)NC1=O` [Compound 26] (H-C[Ala(2-furyl)]IQNCP[Dab]G-NH2; disulfide 1-6; N-terminus and C-terminus assumed): 2240 pM, 2.0 and 28.
`CCCNCCC[C@H](NC(=O)[C@@H]1CCCN1C(=O)[C@@H]1CSSC[C@H](N)C(=O)N[C@@H](Cc2ccccc2)C(=O)N[C@@H]([C@@H](C)CC)C(=O)N[C@@H](CCC(N)=O)C(=O)N[C@@H](CC(N)=O)C(=O)N1)C(=O)NCC(N)=O` [Compound 40] (H-CFIQNCP[Orn(Pr)]G-NH2; disulfide 1-6; N-terminus and C-terminus assumed) displayed a concentration giving a half-maximal response (EC50) on hV1a receptor of 270 pM. The “in vivo duration relative to AVP” value in assay [1] is recorded as 2.0. For the same compound, in assay [2] (EC50 ratio), the “selectivity hOT/hV1a” value is reported as 88.
Turning to `CC[C@H](C)[C@@H]1NC(=O)[C@H](Cc2ccccc2)NC(=O)[C@@H](N)CSSC[C@@H](C(=O)N2CCC[C@H]2C(=O)N[C@@H](CCCN)C(=O)NCC(N)=O)NC(=O)[C@H](CC(N)=O)NC(=O)[C@H](CC(N)=O)NC1=O` [Compound 30] (H-CFINNCP[Orn]G-NH2; disulfide 1-6; N-terminus and C-terminus assumed), the concentration giving a half-maximal response (EC50) at hV1a receptor (setting [3]) came to 1450 pM. Also, the “in vivo duration relative to AVP” value in assay [1] was 1.7. Moreover, the “selectivity hOT/hV1a” value in assay [2] (setting [4]) is on record as “+ (selective hV1a receptor agonist; EC50 hOT/hV1a ratio not determined due to very low agonist efficacy (<30% compared to AVP) at the hOT receptor)”.
The matching figures for `CC[C@H](C)[C@@H]1NC(=O)[C@H](Cc2ccccc2)NC(=O)[C@@H](N)CSSC[C@@H](C(=O)N2CCC[C@H]2C(=O)N[C@@H](CCCNC)C(=O)NCC(N)=O)NC(=O)[C@H](CC(N)=O)NC(=O)[C@H](CC(N)=O)NC1=O` [Compound 46] (H-CFINNCP[Orn(Me)]G-NH2; disulfide 1-6; N-terminus and C-terminus assumed): 2410 pM, 2.1 and “+ (selective hV1a receptor agonist; EC50 hOT/hV1a ratio not determined due to very low agonist efficacy (<30% compared to AVP) at the hOT receptor)”.
For the compound `CC[C@H](C)[C@@H]1NC(=O)[C@H](Cc2ccccc2)NC(=O)[C@@H](N)CSSC[C@@H](C(=O)N2CCC[C@H]2C(=O)N[C@@H](CCCNC)C(=O)NCC(N)=O)NC(=O)[C@H](CC(N)=O)NC(=O)[C@H](CCC(N)=O)NC1=O` [Compound 39] (H-CFIQNCP[Orn(Me)]G-NH2; disulfide 1-6; N-terminus and C-terminus assumed), the 50% effective concentration (EC50) on hV1a receptor turned out to be 210 pM. In assay [1], the “in vivo duration relative to AVP” value is reported as 1.9. In addition, the “selectivity hOT/hV1a” value in assay [2] (EC50 ratio) is recorded as 178.
